Data from ChEMBL document CHEMBL3885861, “Open TG-GATES”.

Organism: Rattus norvegicus
Assay: Open TG-GATES - Regimen: Single
Format: toxicity, organism-based, Sprague-Dawley
Set-up: regimen Single, gender Male, age 6 weeks
Conditions: in vivo, po, route gavage; for Bas / Eos / Fbg / Hb / Ht / Lym / MCH / MCHC / MCV / Mono / Neu / PT / Plat / RBC / Ret / WBC: tissue Blood; for KIDNEY_L / KIDNEY_R / KIDNEY_TOTAL: tissue Kidney; for LIVER: tissue Liver; for ALP / ALT / AST / BUN / CRE / Ca / Cl / DBIL / GLC / IP / K / LDH / Na / PL / RALB / TBIL / TC / TG / TP / gamma-GTP: tissue Plasma
[1] = 0 mg/kg, 3 h, dose level Control
[2] = 0 mg/kg, 6 h, dose level Control
[3] = 0 mg/kg, 9 h, dose level Control
[4] = 0 mg/kg, 24 h, dose level Control

CN(C)CCCN1c2ccccc2Sc2ccc(Cl)cc21 [CHLORPROMAZINE]
TERMINAL_BW [1]: 223.8 g | Bas [1]: 0% | Eos [1]: 1.2% | Fbg [1]: 223.6 mg/dL | Hb [1]: 13.7 g/dL | Ht [1]: 39.3% | Lym [1]: 76% | MCH [1]: 21.8 pg | MCHC [1]: 34.7% | MCV [1]: 62.7 fL | Mono [1]: 2.6% | Neu [1]: 18.8% | PT [1]: 12.5 s | Plat [1]: 116.1 x10_4/uL | RBC [1]: 627.6 x10_4/ul | Ret [1]: 7.6% | WBC [1]: 91.8 x10_2/uL | KIDNEY_L [1]: 1 g | KIDNEY_R [1]: 1 g | KIDNEY_TOTAL [1]: 2 g | LIVER [1]: 10 g | ALP [1]: 1021.8 IU/L | ALT [1]: 37.6 IU/L | AST [1]: 78.8 IU/L | BUN [1]: 12.2 mg/dL | CRE [1]: 0.4 mg/dL | Ca [1]: 10.8 mg/dL | Cl [1]: 103.2 meq/L | DBIL [1]: 0.064 mg/dL | GLC [1]: 190 mg/dL | IP [1]: 8.5 mg/dL | K [1]: 4 meq/L | LDH [1]: 227.2 IU/L | Na [1]: 141.6 meq/L | PL [1]: 131.8 mg/dL | RALB [1]: 3.5 g/dL | TBIL [1]: 0.1 mg/dL | TC [1]: 67.6 mg/dL | TG [1]: 62.6 mg/dL | TP [1]: 5.5 g/dL | gamma-GTP [1]: 1 IU/L | TERMINAL_BW [2]: 217.9 g | Bas [2]: 0% | Eos [2]: 1% | Fbg [2]: 227.4 mg/dL | Hb [2]: 13.4 g/dL | Ht [2]: 38.8% | Lym [2]: 77.2% | MCH [2]: 21.1 pg | MCHC [2]: 34.5% | MCV [2]: 61.2 fL | Mono [2]: 2.8% | Neu [2]: 17.4% | PT [2]: 12.5 s | Plat [2]: 113.2 x10_4/uL | RBC [2]: 634 x10_4/ul | Ret [2]: 7.6% | WBC [2]: 104.6 x10_2/uL | KIDNEY_L [2]: 1 g | KIDNEY_R [2]: 1 g | KIDNEY_TOTAL [2]: 1.9 g | LIVER [2]: 9.2 g | ALP [2]: 816 IU/L | ALT [2]: 33.6 IU/L | AST [2]: 79.8 IU/L | BUN [2]: 9 mg/dL | CRE [2]: 0.4 mg/dL | Ca [2]: 10.7 mg/dL | Cl [2]: 103.4 meq/L | DBIL [2]: 0.066 mg/dL | GLC [2]: 190 mg/dL | IP [2]: 9.4 mg/dL | K [2]: 3.9 meq/L | LDH [2]: 221.2 IU/L | Na [2]: 141.8 meq/L | PL [2]: 133.6 mg/dL | RALB [2]: 3.4 g/dL | TBIL [2]: 0.1 mg/dL | TC [2]: 75.8 mg/dL | TG [2]: 56.2 mg/dL | TP [2]: 5.4 g/dL | gamma-GTP [2]: 0.8 IU/L | TERMINAL_BW [3]: 219.8 g | Bas [3]: 0.4% | Eos [3]: 0.6% | Fbg [3]: 227 mg/dL | Hb [3]: 13.2 g/dL | Ht [3]: 38.2% | Lym [3]: 78.8% | MCH [3]: 21.7 pg | MCHC [3]: 34.5% | MCV [3]: 63 fL | Mono [3]: 2.6% | Neu [3]: 16.6% | PT [3]: 12.6 s | Plat [3]: 122.8 x10_4/uL | RBC [3]: 606.2 x10_4/ul | Ret [3]: 8.3% | WBC [3]: 82.3 x10_2/uL | KIDNEY_L [3]: 1 g | KIDNEY_R [3]: 1 g | KIDNEY_TOTAL [3]: 2 g | LIVER [3]: 9 g | ALP [3]: 922.2 IU/L | ALT [3]: 30.6 IU/L | AST [3]: 68 IU/L | BUN [3]: 11.4 mg/dL | CRE [3]: 0.4 mg/dL | Ca [3]: 10.7 mg/dL | Cl [3]: 104 meq/L | DBIL [3]: 0.066 mg/dL | GLC [3]: 203.4 mg/dL | IP [3]: 10.2 mg/dL | K [3]: 3.8 meq/L | LDH [3]: 180.2 IU/L | Na [3]: 141.8 meq/L | PL [3]: 132.6 mg/dL | RALB [3]: 3.3 g/dL | TBIL [3]: 0.1 mg/dL | TC [3]: 69.8 mg/dL | TG [3]: 59.2 mg/dL | TP [3]: 5.4 g/dL | gamma-GTP [3]: 1 IU/L | TERMINAL_BW [4]: 233.7 g | Bas [4]: 0.8% | Eos [4]: 1.2% | Fbg [4]: 230.4 mg/dL | Hb [4]: 13 g/dL | Ht [4]: 38.5% | Lym [4]: 79% | MCH [4]: 21.2 pg | MCHC [4]: 33.8% | MCV [4]: 62.8 fL | Mono [4]: 3% | Neu [4]: 15.8% | PT [4]: 11.7 s | Plat [4]: 133.9 x10_4/uL | RBC [4]: 613.8 x10_4/ul | Ret [4]: 7.4% | WBC [4]: 115.9 x10_2/uL | KIDNEY_L [4]: 1 g | KIDNEY_R [4]: 1 g | KIDNEY_TOTAL [4]: 2 g | LIVER [4]: 10.7 g | ALP [4]: 1074.4 IU/L | ALT [4]: 34.8 IU/L | AST [4]: 73.8 IU/L | BUN [4]: 16 mg/dL | CRE [4]: 0.5 mg/dL | Ca [4]: 10.8 mg/dL | Cl [4]: 103.8 meq/L | DBIL [4]: 0.058 mg/dL | GLC [4]: 203 mg/dL | IP [4]: 7 mg/dL | K [4]: 4 meq/L | LDH [4]: 192.2 IU/L | Na [4]: 141.2 meq/L | PL [4]: 140 mg/dL | RALB [4]: 3.4 g/dL | TBIL [4]: 0.1 mg/dL | TC [4]: 78.6 mg/dL | TG [4]: 80.2 mg/dL | TP [4]: 5.6 g/dL | gamma-GTP [4]: 1 IU/L | TERMINAL_BW (45 mg/kg, 3 h, dose level Low): 220 g | Bas (45 mg/kg, 3 h, dose level Low): 0% | Eos (45 mg/kg, 3 h, dose level Low): 1% | Fbg (45 mg/kg, 3 h, dose level Low): 221.8 mg/dL | Hb (45 mg/kg, 3 h, dose level Low): 12.5 g/dL | Ht (45 mg/kg, 3 h, dose level Low): 36.7% | Lym (45 mg/kg, 3 h, dose level Low): 79.4% | MCH (45 mg/kg, 3 h, dose level Low): 21 pg | MCHC (45 mg/kg, 3 h, dose level Low): 33.9% | MCV (45 mg/kg, 3 h, dose level Low): 61.9 fL | Mono (45 mg/kg, 3 h, dose level Low): 2.2% | Neu (45 mg/kg, 3 h, dose level Low): 17% | PT (45 mg/kg, 3 h, dose level Low): 12.1 s | Plat (45 mg/kg, 3 h, dose level Low): 127.9 x10_4/uL | RBC (45 mg/kg, 3 h, dose level Low): 594 x10_4/ul | Ret (45 mg/kg, 3 h, dose level Low): 7.8% | WBC (45 mg/kg, 3 h, dose level Low): 55.8 x10_2/uL | KIDNEY_L (45 mg/kg, 3 h, dose level Low): 0.9 g | KIDNEY_R (45 mg/kg, 3 h, dose level Low): 0.9 g | KIDNEY_TOTAL (45 mg/kg, 3 h, dose level Low): 1.8 g | LIVER (45 mg/kg, 3 h, dose level Low): 10.3 g | ALP (45 mg/kg, 3 h, dose level Low): 910.4 IU/L | ALT (45 mg/kg, 3 h, dose level Low): 31.6 IU/L | AST (45 mg/kg, 3 h, dose level Low): 66.4 IU/L | BUN (45 mg/kg, 3 h, dose level Low): 10.2 mg/dL | CRE (45 mg/kg, 3 h, dose level Low): 0.4 mg/dL | Ca (45 mg/kg, 3 h, dose level Low): 10.9 mg/dL | Cl (45 mg/kg, 3 h, dose level Low): 105.6 meq/L | DBIL (45 mg/kg, 3 h, dose level Low): 0.066 mg/dL | GLC (45 mg/kg, 3 h, dose level Low): 244.4 mg/dL | IP (45 mg/kg, 3 h, dose level Low): 10.2 mg/dL | K (45 mg/kg, 3 h, dose level Low): 3.8 meq/L | LDH (45 mg/kg, 3 h, dose level Low): 210 IU/L | Na (45 mg/kg, 3 h, dose level Low): 144.8 meq/L | PL (45 mg/kg, 3 h, dose level Low): 151 mg/dL | RALB (45 mg/kg, 3 h, dose level Low): 3.5 g/dL | TBIL (45 mg/kg, 3 h, dose level Low): 0.1 mg/dL | TC (45 mg/kg, 3 h, dose level Low): 77.8 mg/dL | TG (45 mg/kg, 3 h, dose level Low): 77 mg/dL | TP (45 mg/kg, 3 h, dose level Low): 5.4 g/dL | gamma-GTP (45 mg/kg, 3 h, dose level Low): 1 IU/L | TERMINAL_BW (45 mg/kg, 6 h, dose level Low): 214.5 g | Bas (45 mg/kg, 6 h, dose level Low): 0.2% | Eos (45 mg/kg, 6 h, dose level Low): 1% | Fbg (45 mg/kg, 6 h, dose level Low): 221.8 mg/dL | Hb (45 mg/kg, 6 h, dose level Low): 12.5 g/dL | Ht (45 mg/kg, 6 h, dose level Low): 36.9% | Lym (45 mg/kg, 6 h, dose level Low): 69.4% | MCH (45 mg/kg, 6 h, dose level Low): 21 pg | MCHC (45 mg/kg, 6 h, dose level Low): 34% | MCV (45 mg/kg, 6 h, dose level Low): 62 fL | Mono (45 mg/kg, 6 h, dose level Low): 2.2% | Neu (45 mg/kg, 6 h, dose level Low): 26% | PT (45 mg/kg, 6 h, dose level Low): 12 s | Plat (45 mg/kg, 6 h, dose level Low): 129.9 x10_4/uL | RBC (45 mg/kg, 6 h, dose level Low): 596.2 x10_4/ul | Ret (45 mg/kg, 6 h, dose level Low): 8.2% | WBC (45 mg/kg, 6 h, dose level Low): 48 x10_2/uL | KIDNEY_L (45 mg/kg, 6 h, dose level Low): 1 g | KIDNEY_R (45 mg/kg, 6 h, dose level Low): 0.9 g | KIDNEY_TOTAL (45 mg/kg, 6 h, dose level Low): 1.9 g | LIVER (45 mg/kg, 6 h, dose level Low): 9.4 g | ALP (45 mg/kg, 6 h, dose level Low): 861 IU/L | ALT (45 mg/kg, 6 h, dose level Low): 29.6 IU/L | AST (45 mg/kg, 6 h, dose level Low): 68.4 IU/L | BUN (45 mg/kg, 6 h, dose level Low): 8.6 mg/dL | CRE (45 mg/kg, 6 h, dose level Low): 0.4 mg/dL | Ca (45 mg/kg, 6 h, dose level Low): 10.5 mg/dL | Cl (45 mg/kg, 6 h, dose level Low): 106.4 meq/L | DBIL (45 mg/kg, 6 h, dose level Low): 0.07 mg/dL | GLC (45 mg/kg, 6 h, dose level Low): 249.6 mg/dL | IP (45 mg/kg, 6 h, dose level Low): 10.8 mg/dL | K (45 mg/kg, 6 h, dose level Low): 3.6 meq/L | LDH (45 mg/kg, 6 h, dose level Low): 219.6 IU/L | Na (45 mg/kg, 6 h, dose level Low): 144.8 meq/L | PL (45 mg/kg, 6 h, dose level Low): 138.2 mg/dL | RALB (45 mg/kg, 6 h, dose level Low): 3.4 g/dL | TBIL (45 mg/kg, 6 h, dose level Low): 0.1 mg/dL | TC (45 mg/kg, 6 h, dose level Low): 79.2 mg/dL | TG (45 mg/kg, 6 h, dose level Low): 19.2 mg/dL | TP (45 mg/kg, 6 h, dose level Low): 5.4 g/dL | gamma-GTP (45 mg/kg, 6 h, dose level Low): 1 IU/L
